Experimental findings from patent US10053457B2, “Hydroxyalkyl-piperazine derivatives as CXCR3 receptor modulators” (IDORSIA PHARMACEUTICALS LTD, priority 2015, dated 2018) are described below.

Holding throughout (assay type): cell-based
Data set [1] concerns the target CXCR3 (Homo sapiens (Human), UniProt P49682). Put plainly: Receptor internalization assay in human whole blood (CXCR3 surface expression on CD4 positive cells, CXCL10). Particulars: final CXCL10 9 nM, 30 min at 37° C., mean values. The procedure, abridged:
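Human whole blood with compound plus CXCL10 (9 nM final), 30 min at 37 °C in CO2 incubator, then stained for CXCR3 and CD4 and RBC-lysed. Flow cytometry mean CXCR3 fluorescence on CD4+ cells fitted to single-site dose response for IC50; repeated determinations averaged.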

The target of data set [2] is human CXCR3A (Homo sapiens (Human), UniProt P49682). Put plainly: FLIPR assay (CXCL10-induced calcium signal). Particulars: CHO-K1 cells expressing human CXCR3A coupled to Galpha(16); CXCL10 agonist 20 nM; mean values. The source says: In the case where IC50 values have been determined several times for the same compound, mean values are given.
The target in data set [3] is hERG K channel (Homo sapiens (Human), UniProt Q12809). Nature of the data set: hERG Q-Patch assay. Particulars: CHO cells expressing hERG, K+ tail current 3 min after application, mean of two or three experiments. In a few lines:
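CHO cells stably expressing hERG, automated whole-cell patch clamp at room temperature. Tail currents at −40 mV after 500-ms step to +20 mV from −80 mV, pulsed every 10 s; compound at 300 nM or 3000 nM (0.3% DMSO), current read 3 min after application. % block versus baseline, mean of 2–3 experiments.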

Sequence of human CXCR3A (P49682 whole entry): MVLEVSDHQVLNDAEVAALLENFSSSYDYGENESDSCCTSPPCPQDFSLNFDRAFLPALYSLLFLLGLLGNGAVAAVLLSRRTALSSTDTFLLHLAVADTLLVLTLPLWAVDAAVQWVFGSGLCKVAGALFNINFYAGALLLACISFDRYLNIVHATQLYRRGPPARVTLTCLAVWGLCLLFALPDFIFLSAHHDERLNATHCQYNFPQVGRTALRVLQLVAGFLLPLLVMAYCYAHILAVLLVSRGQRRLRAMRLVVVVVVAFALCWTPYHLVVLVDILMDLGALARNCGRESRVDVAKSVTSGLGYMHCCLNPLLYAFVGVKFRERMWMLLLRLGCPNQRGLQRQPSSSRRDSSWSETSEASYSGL
Sequence of CXCR3 (P49682 whole entry): as above
Sequence of hERG K channel (Q12809 whole entry): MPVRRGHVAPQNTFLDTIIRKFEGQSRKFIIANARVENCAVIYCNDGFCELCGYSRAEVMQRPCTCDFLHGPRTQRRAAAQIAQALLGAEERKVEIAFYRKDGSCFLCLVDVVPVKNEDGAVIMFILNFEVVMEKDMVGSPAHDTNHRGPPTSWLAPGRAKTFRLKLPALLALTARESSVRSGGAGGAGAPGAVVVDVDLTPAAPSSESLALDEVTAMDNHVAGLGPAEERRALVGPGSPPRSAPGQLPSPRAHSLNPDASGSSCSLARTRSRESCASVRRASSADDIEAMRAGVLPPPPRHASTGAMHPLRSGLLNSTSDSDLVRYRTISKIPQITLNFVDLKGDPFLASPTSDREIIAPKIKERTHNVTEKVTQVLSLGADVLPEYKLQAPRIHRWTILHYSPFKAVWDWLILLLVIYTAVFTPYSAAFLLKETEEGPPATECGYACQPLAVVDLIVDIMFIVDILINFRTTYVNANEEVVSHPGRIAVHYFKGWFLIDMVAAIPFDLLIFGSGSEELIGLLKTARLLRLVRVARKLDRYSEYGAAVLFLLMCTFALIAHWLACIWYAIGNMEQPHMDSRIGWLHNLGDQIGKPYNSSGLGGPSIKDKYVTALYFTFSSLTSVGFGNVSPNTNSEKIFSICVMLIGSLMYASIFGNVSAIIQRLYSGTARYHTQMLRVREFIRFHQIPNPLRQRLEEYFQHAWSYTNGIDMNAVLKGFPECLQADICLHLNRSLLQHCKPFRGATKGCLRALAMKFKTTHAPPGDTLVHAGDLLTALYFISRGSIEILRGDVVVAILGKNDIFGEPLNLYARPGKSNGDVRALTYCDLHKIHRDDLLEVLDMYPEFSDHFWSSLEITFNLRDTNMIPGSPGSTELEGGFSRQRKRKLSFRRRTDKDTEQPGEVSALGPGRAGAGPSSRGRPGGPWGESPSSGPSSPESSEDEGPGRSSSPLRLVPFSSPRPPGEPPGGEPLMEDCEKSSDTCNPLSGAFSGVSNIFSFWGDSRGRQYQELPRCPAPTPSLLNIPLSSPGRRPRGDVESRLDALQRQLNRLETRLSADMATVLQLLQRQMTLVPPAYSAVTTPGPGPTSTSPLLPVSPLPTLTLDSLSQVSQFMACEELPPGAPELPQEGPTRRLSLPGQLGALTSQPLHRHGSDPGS

As for `Cc1ncn(CC(=O)N2CCN(c3sc(C(F)(F)F)nc3-c3cnc(C(F)(F)F)nc3)C[C@H]2CCO)n1` [Example 35, 1-{(R)-2-(2-Hydroxy-ethyl)-4-[2-trifluoromethyl-4-(2-trifluoromethyl-pyrimidin-5-yl)-thiazol-5-yl]-piperazin-1-yl}-2-(3-methyl-[1,2,4]triazol-1-yl)-ethanone], the concentration for half-maximal inhibition (IC50) in data set [1] was 102 nM; in data set [2] it was 2.9 nM. Moreover, the results for the “% block” value in data set [3] (concentration 300 nM) and in data set [3] (concentration 3000 nM) were 11% and 25%, respectively.

For the compound `Cc1ncnn1CC(=O)N1CCN(c2sc(C(F)(F)F)nc2-c2cnc(C(F)(F)F)nc2)C[C@H]1CCO` [Example 36, 1-{(R)-2-(2-Hydroxy-ethyl)-4-[2-trifluoromethyl-4-(2-trifluoromethyl-pyrimidin-5-yl)-thiazol-5-yl]-piperazin-1-yl}-2-(5-methyl-[1,2,4]triazol-1-yl)-ethanone], the IC50 in data set [1] worked out at 451 nM; in data set [2] it was 8 nM. In addition, the “% block” value was 10% in data set [3] (concentration 300 nM) and 19% in data set [3] (concentration 3000 nM).

On to `COCc1ncn(CC(=O)N2CCN(c3sc(C(F)(F)F)nc3-c3cnc(C(F)(F)F)nc3)C[C@H]2CCO)n1` [Example 37, 1-{(R)-2-(2-Hydroxy-ethyl)-4-[2-trifluoromethyl-4-(2-trifluoromethyl-pyrimidin-5-yl)-thiazol-5-yl]-piperazin-1-yl}-2-(3-methoxymethyl-[1,2,4]triazol-1-yl)-ethanone], for which the IC50 in data set [1] was 393 nM; in data set [2] it was 5.7 nM. Further, the “% block” value in data set [3] (concentration 300 nM) stood at 4%; in data set [3] (concentration 3000 nM) it was 9%.

For `Cc1ccn(CC(=O)N2CCN(c3sc(C(F)(F)F)nc3-c3cnc(C(F)(F)F)nc3)C[C@H]2CCO)n1` [Example 39, 1-{(R)-2-(2-Hydroxy-ethyl)-4-[2-trifluoromethyl-4-(2-trifluoromethyl-pyrimidin-5-yl)-thiazol-5-yl]-piperazin-1-yl}-2-(3-methyl-pyrazol-1-yl)-ethanone], the IC50 in data set [1] came out at 46.3 nM; in data set [2], 1 nM. For the same compound, the “% block” value in data set [3] (concentration 300 nM) is listed as 1%; in data set [3] (concentration 3000 nM), 32%.

As to `CCc1ccn(CC(=O)N2CCN(c3sc(C(F)(F)F)nc3-c3cnc(C(F)(F)F)nc3)C[C@H]2CCO)n1` [Example 40, 2-(3-Ethyl-pyrazol-1-yl)-1-{(R)-2-(2-hydroxy-ethyl)-4-[2-trifluoromethyl-4-(2-trifluoromethyl-pyrimidin-5-yl)-thiazol-5-yl]-piperazin-1-yl}-ethanone], the results for the half-maximal inhibitory concentration (IC50) in data set [1] and in data set [2] were 32.7 nM and 1.6 nM, respectively. For the same compound, the “% block” value was 5% in data set [3] (concentration 300 nM) and 47% in data set [3] (concentration 3000 nM).

As for `O=C(Cn1ccc(C2CC2)n1)N1CCN(c2sc(C(F)(F)F)nc2-c2cnc(C(F)(F)F)nc2)C[C@H]1CCO` [Example 41, 2-(3-Cyclopropyl-pyrazol-1-yl)-1-{(R)-2-(2-hydroxy-ethyl)-4-[2-trifluoromethyl-4-(2-trifluoromethyl-pyrimidin-5-yl)-thiazol-5-yl]-piperazin-1-yl}-ethanone], the half-inhibitory concentration (IC50) worked out at 30.2 nM in data set [1] and 0.45 nM in data set [2]. Moreover, the “% block” value worked out at 12% in data set [3] (concentration 300 nM) and 60% in data set [3] (concentration 3000 nM).

For `Cc1ccn(CC(=O)N2CCN(c3sc(C(F)(F)F)nc3-c3cnc(C(F)(F)F)nc3)C[C@H]2CO)n1` [Example 42, 1-{(S)-2-Hydroxymethyl-4-[2-trifluoromethyl-4-(2-trifluoromethyl-pyrimidin-5-yl)-thiazol-5-yl]-piperazin-1-yl}-2-(3-methyl-pyrazol-1-yl)-ethanone], the figures for the 50% inhibitory concentration (IC50) in data set [1] and in data set [2] were 59.7 nM and 1 nM, respectively. Moreover, the “% block” value in data set [3] (concentration 300 nM) is on record as 2%; in data set [3] (concentration 3000 nM), 15%.

`CCc1ccn(CC(=O)N2CCN(c3sc(C(F)(F)F)nc3-c3cnc(C(F)(F)F)nc3)C[C@H]2CO)n1` [Example 43, 2-(3-Ethyl-pyrazol-1-yl)-1-{(S)-2-hydroxymethyl-4-[2-trifluoromethyl-4-(2-trifluoromethyl-pyrimidin-5-yl)-thiazol-5-yl]-piperazin-1-yl}-ethanone]: the IC50 in data set [1] amounted to 40.3 nM; in data set [2], 1.2 nM. Further, the figures for the “% block” value in data set [3] (concentration 300 nM) and in data set [3] (concentration 3000 nM) were 5% and 25%, respectively.

Turning to `O=C(Cn1ccc(C2CC2)n1)N1CCN(c2sc(C(F)(F)F)nc2-c2cnc(C(F)(F)F)nc2)C[C@H]1CO` [Example 44, 2-(3-Cyclopropyl-pyrazol-1-yl)-1-{(S)-2-hydroxymethyl-4-[2-trifluoromethyl-4-(2-trifluoromethyl-pyrimidin-5-yl)-thiazol-5-yl]-piperazin-1-yl}-ethanone], the IC50 came to 76 nM in data set [1] and 0.38 nM in data set [2]. Moreover, the figures for the “% block” value in data set [3] (concentration 300 nM) and in data set [3] (concentration 3000 nM) were 5% and 34%, respectively.

Broadly, the IC50 is the concentration at which inhibition is half-maximal.
